From US20250073014A1, “METHODS, DEVICES AND SYSTEMS FOR TREATING NEOINTIMAL GROWTH” (priority 2022, published 2025)
Read-outs that look alike come from different tables or passages of the source. One block for each compound: values may come before it.

How the values were obtained:
[1] = design: species or system Yorkshire swine; details: female, Yorkshire, pig, in vivo
Procedure: Formulations: Two Different Formulations were Prepared: • 1. […] Sirolimus was encapsulated in gelatin nanoparticles (GNP).
An incision of 5-8 cm was made alongside the femoral (or carotid) artery, and surrounding muscle and perivascular fascia were bluntly dissected to expose the artery.
The HPLC facility isolated the paclitaxel in usual manner and sirolimus was isolated with an addition step of enzymatic digesting of the GNP with trypsin at 37° C. before the analysis of each of them by Liquid Chromatography with tandem mass spectrometry (LC-MS-MS). • 1. Paclitaxel on day 1 in both the arteries with the final concentration of 12 ng/g in the first artery and 5.2 ng/g in second artery was detected by LC-MS/MS. The solution that was evacuated after 5 min of the formulation in the test site was evaluated by LC-MS/MS to detect 15% (75 mg) of the initial concentration of injected paclitaxel solution. […] Only few nanograms were detected in 24 h and that could indicate that probably 100% DMSO as a carrier took away the paclitaxel from the site to other region of the leg muscles that were not evaluated.

[2] = Rapamycin delivery in isolated porcine carotid artery (LC-MS/MS of tissue and washings); type: in vitro ADME
Procedure: Sirolimus/Rapamycin was analyzed using an LC-MS/MS system consisting of an Agilent 1290 (San Jose, CA, USA) coupled to electrospray ionization on a triple quadrupole mass spectrometer (Agilent 6460, San Jose, CA, USA) equipped with a turbo ion spray interface in negative ionization mode, and an Agilent LC 1200 Binary pump system (Agilent Technologies, Santa Clara, CA, USA). Ascomycin was used as an internal standard (IS). A Gemini 5 μm NX-C18 110 Å, LC Column polar-RP 80A column (50×2 mm, Phenomenex, Torrance, CA, USA) equipped with a Security Guard™ column (4.0 mm×3.0 mm) was utilized to optimally separate sirolimus and the internal standard from endogenous substances of porcine carotid artery. The mobile phase was a mixture of 20 mM ammonium acetate (A) and methanol (B). Sample separation was conducted using a flow rate of 0.2 mL/min and a 10-min gradient condition (0-1 min: 20% B, 1-6 min: 100% B, 6-7 min: 100% B, 7.1-10 min: 20% B). The injection volume was […] for calibration and carotid artery samples. The selected reaction monitoring transitions of m/z 912.5→371.2 and m/z 790.5→530.3 were applied for sirolimus and IS, respectively. Mass data were acquired using Analyst software version 1.5.2 (Applied Biosystems-SCIEX, Concord, ON, Canada). Data analysis was processed using SCIEX OS offline software version 1.6 (Applied Biosystems-SCIEX, Concord, ON, Canada).
Sirolimus/Rapamycin was dissolved in acetonitrile to prepare a stock solution (1 mg/mL) and including IS with 2 ng/μL and were gradually diluted by the serial dilution method using calibrated pipettes (2-20 μL, 10-100 μL and 100-1000 μL), in order to obtain working stock dilutions at decreasing concentrations ([…]). These solutions were used for the preparation of mass spectrometry optimization, calibration curve and quality control standards in DMSO and carotid artery homogenates. These stock solutions and stock dilutions were stored at −20° C., respectively.
Sirolimus/Rapamycin was dissolved in DMSO to prepare a final concentration of 100 mg/mL (stock solution) and stored at −80° C. The porcine carotid arteries were washed 5 times in PBS (1×) to remove all the blood and fluids, followed by cutting them into 40 mm length. The surface area (SA) of the artery was calculated to be 628 mm^2 (lateral SAcylinder=2πrh; π=3.14, r=2.5 mm, and h=40 mm). The Rapamycin solution was diluted in DMSO to prepare […] (2 μg/mm^2). One of the carotid arteries was tied at one end and then it was filled with 0.5 mL of Rapamycin solution ([Rapamycin]0=628 μg/mL) then the open end was tied. After a 5-minute treatment, the solution was drained out, then arteries were washed with 5×0.2 mL of PBS (1×) which was also collected for the analysis. A similar experiment was performed as a biological duplicate. The arteries and the washings were then analyzed for the presence of Sirolimus/Rapamycin for determining the amount that was absorbed by the tissues compared to the amount that was washed out for use as a model.
Treated and untreated porcine carotid artery segments (100 mg, 2 mm) were shredded in methanol with a surgical blade and transferred to a 2 ml tube with a total volume of 1 ml methanol and 100 μL of internal standard (1 ng/ml). This tube contained garnet beads/shards for homogenizing tissue. Then a Qiagen Tissue Lyser LT was used to beat the artery shreds at 50 Hz for 10 minutes. The supernatant was dried down completely under a gentle stream of nitrogen using a nitrogen evaporator. The samples were resuspended in 100 μL of DMSO and placed in inserted universal autosampler vials prior to analysis.

[3] = Stability and solubility of rapamycin in DMSO and DMSO/saline; type: physicochemical; details: in DMSO at −20° C.
Description: The rapamycin solution in DMSO could be further diluted either in saline, PBS, or distilled water.
The best working solution is considered to be 50/50 DMSO/water i.e., 50% of the DMSO in solution. This could be envisioned valid if instead of saline blood is used.

[4] = system: cholesterol-induced atherosclerosis; details: cited from earlier work

Drug in solution evacuated after 5 min, % of the initial concentration [1]: 15% | Drug in solution evacuated after 5 min, amount [1]: 75 mg | Absorbed by the tissue, % ([1]; 5 min): 85% | Absorbed by the tissue, amount ([1]; 5 min): 425 mg | Findings around the site of delivery when sutures were opened (in vivo): a lot of dead tissues and blood clots
Structure (SMILES): CC(=O)O[C@H]1C(=O)[C@@]2(C)[C@H]([C@H](OC(=O)c3ccccc3)[C@]3(O)C[C@H](OC(=O)[C@H](O)[C@@H](NC(=O)c4ccccc4)c4ccccc4)C(C)=C1C3(C)C)[C@]1(OC(C)=O)CO[C@@H]1C[C@@H]2O [Paclitaxel]
Adverse reaction (edema) (day 7 animal): no edema was observed | Adverse reaction (edema) (day 14 animal): Same lack of reaction was observed | Adverse reaction on injected leg (edema) (t=24 h animal): severe edema

% of total drug in 2 mm of artery ([2]; 5-minute treatment, rapamycin in DMSO): 30.13% | % of total drug in washings (40 mm of artery) ([2]; PBS washings after 5-minute treatment): 0.5% | Delivery efficiency ([2]; Total Dose 220 ug): 99.55% | Lost in Blood stream (washed out) ([2]; Total Dose 220 ug): 1 µg | Remaining in tissue ([2]; Total Dose 220 ug): 68.75 µg | Remaining in tissue, % of the dose ([2]; Total Dose 220 ug): 30.13 % of the dose | Stability of rapamycin in DMSO [3]: many months
Structure (SMILES): CO[C@H]1C[C@@H]2CC[C@@H](C)[C@@](O)(O2)C(=O)C(=O)N2CCCC[C@H]2C(=O)O[C@H]([C@H](C)C[C@@H]2CC[C@@H](O)[C@H](OC)C2)CC(=O)[C@H](C)/C=C(\C)[C@@H](O)[C@@H](OC)C(=O)[C@H](C)C[C@H](C)/C=C/C=C/C=C/1C [Rapamycin]

Structure (SMILES): C[S+](C)[O-] [DMSO, dimethyl sulfoxide]
Food intake of rabbits on the atherogenic diet [4]: not suppressed | Inhibition of aortic lesions ([4]; rabbits on atherogenic diet, 2% (dose, 1.5 g/kg) DMSO): about 50% | Aortic lesions ([4]; rabbits on atherogenic diet, 4 (3.5 g/kg), 5 (5.5 g/kg) and 6% (9.1 g/kg) DMSO): virtually absent in the majority of rabbits
